Data reported in PMC12640959, “Elucidation of anti-SARS-CoV-2 and anti-inflammatory bioactives in Qingyan Dropping Pills via integrated in silico screening and bioactivity validation” (Frontiers in Medicine, 2025).

Tested on: SARS-CoV-2 Omicron BA.5
Experiment: cytopathic effects (CPE) inhibition assay in Vero E6 cells
Type: cell-based
Conditions: result in words

SMILES: C[C@@H]1O[C@@H](O[C@H]2[C@H](Oc3cc(O)c4c(=O)cc(-c5ccc(O)cc5)oc4c3)O[C@H](CO)[C@@H](O)[C@@H]2O)[C@H](O)[C@H](O)[C@H]1O [RHO, rhoifolin]
- inhibition of the SARS-CoV-2 Omicron BA.5 variant: failed to inhibit
